According to the NIST ThermoML archive (doi:10.1016/j.jct.2019.01.012):
± gives the expanded uncertainty stated by the source.

Test: molar enthalpy of vaporization or sublimation
Details: 298.15 K; Liquid; Static calorimetry

molar enthalpy [kcal/mol] | SMILES
12.5 ± 0.359 | O=C1C=CCC1 [2-cyclopenten-1-one]
12.5 ± 0.335 | CC1=CC(=O)CC1 [3-methyl-2-cyclopenten-1-one]
